Patent US10501461B2, “Tyrosine amide derivatives as Rho-kinase inhibitors” (CHIESI FARMACEUTICI S.P.A., priority 2017, dated 2019)
pKi: −log10 of the molar value.

Assays:
Rho kinase 1 (ROCK-I) = Rho kinase 1 (ROCK-I) (Homo sapiens, UniProt Q13464); assay: In vitro Rho kinase inhibitory activity assay (ADP-Glo), Rho kinase 1; type: biochemical; details: 10 μM ATP, 25° C., expressed as range of activity
Procedure, shortened: (§1)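 Human ROCK1 or ROCK2 was preincubated with compound for 30 min at 25 °C in 40 mM Tris pH7.5, 20 mM MgCl2, 0.1 mg/ml BSA, 50 μM DTT, 2.5 μM Myelin Basic Protein, 1% DMSO final. Reactions ran 1 hour with 10 μM ATP final; ADP-Glo luminescence gave IC50 by sigmoidal fit, Ki by Cheng-Prusoff.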

Rho kinase 2 (ROCK-II) = Rho kinase 2 (ROCK-II) (Homo sapiens, UniProt O75116); assay: In vitro Rho kinase inhibitory activity assay (ADP-Glo), Rho kinase 2; type: biochemical; details: 10 μM ATP, 25° C., expressed as range of activity
Rho kinase 2 (ROCK-II), sequence (O75116 whole entry): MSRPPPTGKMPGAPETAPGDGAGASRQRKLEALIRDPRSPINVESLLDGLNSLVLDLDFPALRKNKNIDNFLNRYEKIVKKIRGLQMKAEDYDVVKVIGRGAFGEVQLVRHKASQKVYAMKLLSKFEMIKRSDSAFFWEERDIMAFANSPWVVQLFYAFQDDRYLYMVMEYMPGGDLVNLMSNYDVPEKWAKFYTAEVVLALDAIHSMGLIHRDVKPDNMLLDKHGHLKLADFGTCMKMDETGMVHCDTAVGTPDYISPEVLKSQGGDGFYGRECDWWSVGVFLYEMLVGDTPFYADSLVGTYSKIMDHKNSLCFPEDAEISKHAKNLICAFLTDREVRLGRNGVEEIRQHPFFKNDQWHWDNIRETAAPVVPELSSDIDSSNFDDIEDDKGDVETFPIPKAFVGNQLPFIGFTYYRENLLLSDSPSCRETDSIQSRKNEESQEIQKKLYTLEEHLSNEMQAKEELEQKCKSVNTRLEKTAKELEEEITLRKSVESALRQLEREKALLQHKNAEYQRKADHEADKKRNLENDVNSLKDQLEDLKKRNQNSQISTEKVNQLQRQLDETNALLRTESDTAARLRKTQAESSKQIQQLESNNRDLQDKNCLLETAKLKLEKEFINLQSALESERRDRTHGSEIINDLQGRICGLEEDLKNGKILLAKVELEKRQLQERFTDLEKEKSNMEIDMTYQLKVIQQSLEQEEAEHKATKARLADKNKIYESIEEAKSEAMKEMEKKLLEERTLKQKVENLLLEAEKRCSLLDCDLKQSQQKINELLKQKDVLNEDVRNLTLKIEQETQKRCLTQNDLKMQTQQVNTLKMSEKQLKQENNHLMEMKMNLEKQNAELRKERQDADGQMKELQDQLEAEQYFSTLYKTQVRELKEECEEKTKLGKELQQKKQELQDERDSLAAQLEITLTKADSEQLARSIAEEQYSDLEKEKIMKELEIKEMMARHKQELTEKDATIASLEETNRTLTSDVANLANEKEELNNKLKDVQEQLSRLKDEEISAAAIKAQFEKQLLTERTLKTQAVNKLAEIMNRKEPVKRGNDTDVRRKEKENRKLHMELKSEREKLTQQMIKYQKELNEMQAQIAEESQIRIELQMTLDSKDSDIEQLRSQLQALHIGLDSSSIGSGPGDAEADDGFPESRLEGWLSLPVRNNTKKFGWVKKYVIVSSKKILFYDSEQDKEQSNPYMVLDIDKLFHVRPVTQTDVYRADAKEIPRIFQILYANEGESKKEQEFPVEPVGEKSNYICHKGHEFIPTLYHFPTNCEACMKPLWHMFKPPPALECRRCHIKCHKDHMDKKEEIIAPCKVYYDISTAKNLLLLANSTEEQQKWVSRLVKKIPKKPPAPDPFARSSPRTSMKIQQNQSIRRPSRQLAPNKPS
Procedure, shortened: as §1

Rho kinase 1 (ROCK-I), sequence (Q13464 whole entry): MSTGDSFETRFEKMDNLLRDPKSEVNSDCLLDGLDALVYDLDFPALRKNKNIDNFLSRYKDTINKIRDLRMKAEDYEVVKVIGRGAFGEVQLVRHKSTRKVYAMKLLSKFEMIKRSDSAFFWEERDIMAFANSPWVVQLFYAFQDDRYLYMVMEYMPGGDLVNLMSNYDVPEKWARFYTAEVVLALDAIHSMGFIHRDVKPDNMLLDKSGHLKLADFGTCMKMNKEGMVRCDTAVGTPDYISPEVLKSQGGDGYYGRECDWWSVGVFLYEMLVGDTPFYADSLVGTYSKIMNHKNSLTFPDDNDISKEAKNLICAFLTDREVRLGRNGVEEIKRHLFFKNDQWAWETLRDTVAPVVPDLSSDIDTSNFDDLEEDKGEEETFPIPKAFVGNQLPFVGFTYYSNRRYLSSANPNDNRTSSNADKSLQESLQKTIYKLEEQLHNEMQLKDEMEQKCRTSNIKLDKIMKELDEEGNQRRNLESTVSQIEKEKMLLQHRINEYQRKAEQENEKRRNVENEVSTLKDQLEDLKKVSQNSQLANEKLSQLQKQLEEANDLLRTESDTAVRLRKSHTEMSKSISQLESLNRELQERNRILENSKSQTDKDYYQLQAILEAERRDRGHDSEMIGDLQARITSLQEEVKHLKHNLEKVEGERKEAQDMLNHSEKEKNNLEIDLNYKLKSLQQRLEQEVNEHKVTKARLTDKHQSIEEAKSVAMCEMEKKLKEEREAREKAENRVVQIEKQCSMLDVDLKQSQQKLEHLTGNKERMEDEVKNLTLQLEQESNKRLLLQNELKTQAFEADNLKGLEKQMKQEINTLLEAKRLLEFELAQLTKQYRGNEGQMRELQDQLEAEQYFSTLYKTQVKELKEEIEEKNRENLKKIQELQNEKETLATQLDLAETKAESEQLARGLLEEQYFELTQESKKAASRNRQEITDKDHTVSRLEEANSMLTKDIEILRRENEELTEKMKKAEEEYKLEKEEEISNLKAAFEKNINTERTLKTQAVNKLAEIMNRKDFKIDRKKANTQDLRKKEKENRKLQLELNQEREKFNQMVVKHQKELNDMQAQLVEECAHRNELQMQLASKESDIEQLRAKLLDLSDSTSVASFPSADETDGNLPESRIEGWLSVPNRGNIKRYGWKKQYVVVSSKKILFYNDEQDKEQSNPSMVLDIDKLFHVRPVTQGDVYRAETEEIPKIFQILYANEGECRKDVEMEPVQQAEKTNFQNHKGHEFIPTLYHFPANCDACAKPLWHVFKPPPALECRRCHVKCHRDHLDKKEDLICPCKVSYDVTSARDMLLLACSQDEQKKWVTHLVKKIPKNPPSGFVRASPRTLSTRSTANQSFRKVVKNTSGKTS

Cc1c[nH]c2nccc(Oc3ccc(CC(N)C(=O)N4CCn5cncc5C4)cc3F)c12 (stereo not drawn) [Example 81, 2-amino-1-(5,6-dihydroimidazo[1,5-a]pyrazin-7(8H)-yl)-3-(3-fluoro-4-((3-methyl-1H-pyrrolo[2,3-b]pyridin-4-yl)oxy)phenyl)propan-1-one]
pKi (Rho kinase 1 (ROCK-I)): > 8.52 | pKi (Rho kinase 2 (ROCK-II)): > 8.52

Cc1c[nH]c2nccc(Oc3ccc(CC(N)C(=O)NCC4CCN(Cc5ccccc5)CC4)cc3F)c12 (stereo not drawn) [Example 82, 2-amino-N-((1-benzylpiperidin-4-yl)methyl)-3-(3-fluoro-4-((3-methyl-1H-pyrrolo[2,3-b]pyridin-4-yl)oxy)phenyl)propanamide]
pKi (Rho kinase 1 (ROCK-I)): > 8.52 | pKi (Rho kinase 2 (ROCK-II)): > 8.52

Cc1c[nH]c2nccc(Oc3ccc(CC(N)C(=O)NC4CCN(Cc5ccccc5)CC4)cc3F)c12 (stereo not drawn) [Example 83, 2-amino-N-(1-benzylpiperidin-4-yl)-3-(3-fluoro-4-((3-methyl-1H-pyrrolo[2,3-b]pyridin-4-yl)oxy)phenyl)propanamide]
pKi (Rho kinase 1 (ROCK-I)): > 8.52 | pKi (Rho kinase 2 (ROCK-II)): > 8.52

Cc1cc2c(Oc3ccc(C[C@H](N)C(=O)N4CCN(Cc5ccccc5)CC4)cc3F)ccnc2[nH]1 [Example 86, (S)-2-amino-1-(4-benzylpiperazin-1-yl)-3-(3-fluoro-4-((2-methyl-1H-pyrrolo[2,3-b]pyridin-4-yl)oxy)phenyl)propan-1-one]
pKi (Rho kinase 1 (ROCK-I)): < 7.52 | pKi (Rho kinase 2 (ROCK-II)): < 7.52

COCCCNC(=O)[C@@H](N)Cc1ccc(Oc2ccnc3[nH]cc(C)c23)cc1 [Example 87, (S)-2-amino-N-(3-methoxylpropyl)-3-(4-((3-methyl-1H-pyrrolo[2,3-b]pyridin-4-yl)oxy)phenyl)propanamide]
pKi (Rho kinase 1 (ROCK-I)): > 8.52 | pKi (Rho kinase 2 (ROCK-II)): > 8.52

Cc1c[nH]c2nccc(Oc3ccc(C[C@H](N)C(=O)N4CCN(Cc5ccccc5)CC4)cc3)c12 [Example 88, (S)-2-amino-1-(4-benzylpiperazin-1-yl)-3-(4-((3-methyl-1H-pyrrolo[2,3-b]pyridin-4-yl)oxy)phenyl)propan-1-one]
pKi (Rho kinase 1 (ROCK-I)): > 8.52 | pKi (Rho kinase 2 (ROCK-II)): > 8.52

Cc1c[nH]c2nccc(Oc3ccc(C[C@H](N)C(=O)NCCc4ccncc4)cc3)c12 [Example 89, (S)-2-amino-3-(4-((3-methyl-1H-pyrrolo[2,3-b]pyridin-4-yl)oxy)phenyl)-N-(2-(pyridin-4-yl)ethyl)propanamide]
pKi (Rho kinase 1 (ROCK-I)): > 8.52 | pKi (Rho kinase 2 (ROCK-II)): > 8.52

Cc1c[nH]c2nccc(Oc3ccc(C[C@H](N)C(=O)NC4CCOCC4)cc3)c12 [Example 90, (S)-2-amino-3-(4-((3-methyl-1H-pyrrolo[2,3-b]pyridin-4-yl)oxy)phenyl)-N-(tetrahydro-2H-pyran-4-yl)propanamide]
pKi (Rho kinase 1 (ROCK-I)): > 8.52 | pKi (Rho kinase 2 (ROCK-II)): > 8.52

NC(Cc1ccc(Oc2ccnc3[nH]ccc23)cc1)C(=O)Nc1ccc(C(F)(F)F)cc1 (stereo not drawn) [Example 91, 3-(4-((1H-pyrrolo[2,3-b]pyridin-4-yl)oxy)phenyl)-2-amino-N-(4-(trifluoromethyl)phenyl)propanamide]
pKi (Rho kinase 1 (ROCK-I)): 7.52 to 8.52 | pKi (Rho kinase 2 (ROCK-II)): > 8.52

CN(CC1CCCCC1)C(=O)[C@@H](N)Cc1ccc(Oc2ccnc3[nH]ccc23)cc1 [Example 92, (S)-3-(4-((1H-pyrrolo[2,3-b]pyridin-4-yl)oxy)phenyl)-2-amino-N-(cyclohexylmethyl)-N-methylpropanamide]
pKi (Rho kinase 1 (ROCK-I)): 7.52 to 8.52 | pKi (Rho kinase 2 (ROCK-II)): 7.52 to 8.52

CN(Cc1ccccc1)C(=O)[C@@H](N)Cc1ccc(Oc2ccnc3[nH]ccc23)cc1 [Example 93, (S)-3-(4-((1H-pyrrolo[2,3-b]pyridin-4-yl)oxy)phenyl)-2-amino-N-benzyl-N-methylpropanamide]
pKi (Rho kinase 1 (ROCK-I)): 7.52 to 8.52 | pKi (Rho kinase 2 (ROCK-II)): 7.52 to 8.52

N[C@@H](Cc1ccc(Oc2ccnc3[nH]ccc23)cc1)C(=O)Nc1ccc(Cl)nc1 [Example 94, (S)-3-(4-((1H-pyrrolo[2,3-b]pyridin-4-yl)oxy)phenyl)-2-amino-N-(6-chloropyridin-3-yl)propanamide]
pKi (Rho kinase 1 (ROCK-I)): > 8.52 | pKi (Rho kinase 2 (ROCK-II)): > 8.52

CN(C)CCNC(=O)[C@@H](N)Cc1ccc(Oc2ccnc3[nH]ccc23)cc1 [Example 95, (S)-3-(4-((1H-pyrrolo[2,3-b]pyridin-4-yl)oxy)phenyl)-2-amino-N-(2-(dimethylamino)ethyl)propanamide]
pKi (Rho kinase 1 (ROCK-I)): < 7.52 | pKi (Rho kinase 2 (ROCK-II)): < 7.52

CN(C)CCNC(=O)[C@H](N)Cc1ccc(Oc2ccnc3[nH]ccc23)cc1 [Example 96, (R)-3-(4-((1H-pyrrolo[2,3-b]pyridin-4-yl)oxy)phenyl)-2-amino-N-(2-(dimethylamino)ethyl)propanamide]
pKi (Rho kinase 1 (ROCK-I)): < 7.52 | pKi (Rho kinase 2 (ROCK-II)): < 7.52

N[C@@H](Cc1ccc(Oc2ccnc3[nH]ccc23)cc1)C(=O)NCc1ccccc1 [Example 97, (S)-3-(4-((1H-pyrrolo[2,3-b]pyridin-4-yl)oxy)phenyl)-2-amino-N-benzylpropanamide]
pKi (Rho kinase 1 (ROCK-I)): 7.52 to 8.52 | pKi (Rho kinase 2 (ROCK-II)): 7.52 to 8.52

N[C@H](Cc1ccc(Oc2ccnc3[nH]ccc23)cc1)C(=O)NCc1ccccc1 [Example 98, (R)-3-(4-((1H-pyrrolo[2,3-b]pyridin-4-yl)oxy)phenyl)-2-amino-N-benzylpropanamide]
pKi (Rho kinase 1 (ROCK-I)): < 7.52 | pKi (Rho kinase 2 (ROCK-II)): < 7.52

N[C@@H](Cc1ccc(Oc2ccnc3[nH]ccc23)cc1)C(=O)NC1CCOCC1 [Example 99, (S)-3-(4-((1H-pyrrolo[2,3-b]pyridin-4-yl)oxy)phenyl)-2-amino-N-(tetrahydro-2H-pyran-4-yl)propanamide]
pKi (Rho kinase 1 (ROCK-I)): 7.52 to 8.52 | pKi (Rho kinase 2 (ROCK-II)): 7.52 to 8.52

N[C@H](Cc1ccc(Oc2ccnc3[nH]ccc23)cc1)C(=O)NC1CCOCC1 [Example 100, (R)-3-(4-((1H-pyrrolo[2,3-b]pyridin-4-yl)oxy)phenyl)-2-amino-N-(tetrahydro-2H-pyran-4-yl)propanamide]
pKi (Rho kinase 1 (ROCK-I)): < 7.52 | pKi (Rho kinase 2 (ROCK-II)): < 7.52

CN(C(=O)[C@@H](N)Cc1ccc(Oc2ccnc3[nH]ccc23)cc1)C1CCCCC1 [Example 101, (S)-3-(4-((1H-pyrrolo[2,3-b]pyridin-4-yl)oxy)phenyl)-2-amino-N-cyclohexyl-N-methylpropanamide]
pKi (Rho kinase 1 (ROCK-I)): 7.52 to 8.52 | pKi (Rho kinase 2 (ROCK-II)): 7.52 to 8.52

CN(C(=O)[C@H](N)Cc1ccc(Oc2ccnc3[nH]ccc23)cc1)C1CCCCC1 [Example 102, (R)-3-(4-((1H-pyrrolo[2,3-b]pyridin-4-yl)oxy)phenyl)-2-amino-N-eyclohexyl-N-methylpropanamide]
pKi (Rho kinase 1 (ROCK-I)): < 7.52 | pKi (Rho kinase 2 (ROCK-II)): < 7.52

CN1CCC(NC(=O)[C@@H](N)Cc2ccc(Oc3ccnc4[nH]ccc34)cc2)CC1 [Example 103, (S)-3-(4-((1H-pyrrolo[2,3-b]pyridin-4-yl)oxy)phenyl)-2-amino-N-(1-methylpiperidin-4-yl)propanamide]
pKi (Rho kinase 1 (ROCK-I)): 7.52 to 8.52 | pKi (Rho kinase 2 (ROCK-II)): 7.52 to 8.52

CN1CCC(NC(=O)[C@H](N)Cc2ccc(Oc3ccnc4[nH]ccc34)cc2)CC1 [Example 104, (R)-3-(4-((1H-pyrrolo[2,3-b]pyridin-4-yl)oxy)phenyl)-2-amino-N-(1-methylpiperidin-4-yl)propanamide]
pKi (Rho kinase 1 (ROCK-I)): < 7.52 | pKi (Rho kinase 2 (ROCK-II)): < 7.52

N[C@@H](Cc1ccc(Oc2ccnc3[nH]ccc23)cc1)C(=O)Nc1nccs1 [Example 105, (S)-3-(4-((1H-pyrrolo[2,3-b]pyridin-4-yl)oxy)phenyl)-2-amino-N-(thiazol-2-yl)propanamide]
pKi (Rho kinase 1 (ROCK-I)): 7.52 to 8.52 | pKi (Rho kinase 2 (ROCK-II)): 7.52 to 8.52

N[C@H](Cc1ccc(Oc2ccnc3[nH]ccc23)cc1)C(=O)Nc1nccs1 [Example 106, (R)-3-(4-((1H-pyrrolo[2,3-b]pyridin-4-yl)oxy)phenyl)-2-amino-N-(thiazol-2-yl)propanamide]
pKi (Rho kinase 1 (ROCK-I)): < 7.52 | pKi (Rho kinase 2 (ROCK-II)): < 7.52

N[C@@H](Cc1ccc(Oc2ccnc3[nH]ccc23)cc1)C(=O)NCC1CCCCC1 [Example 107, (S)-3-(4-((1H-pyrrolo[2,3-b]pyridin-4-yl)oxy)phenyl)-2-amino-N-(cyclohexylmethyl)propanamide]
pKi (Rho kinase 1 (ROCK-I)): > 8.52 | pKi (Rho kinase 2 (ROCK-II)): > 8.52

N[C@H](Cc1ccc(Oc2ccnc3[nH]ccc23)cc1)C(=O)NCC1CCCCC1 [Example 108, (R)-3-(4-((1H-pyrrolo[2,3-b]pyridin-4-yl)oxy)phenyl)-2-amino-N-(cyclohexylmethyl)propanamide]
pKi (Rho kinase 1 (ROCK-I)): 7.52 to 8.52 | pKi (Rho kinase 2 (ROCK-II)): 7.52 to 8.52

N[C@@H](Cc1ccc(Oc2ccnc3[nH]ccc23)cc1)C(=O)Nc1ccccc1 [Example 109, (S)-3-(4-((1H-pyrrolo[2,3-b]pyridin-4-yl)oxy)phenyl)-2-amino-N-phenylpropanamide]
pKi (Rho kinase 1 (ROCK-I)): 7.52 to 8.52 | pKi (Rho kinase 2 (ROCK-II)): 7.52 to 8.52

N[C@H](Cc1ccc(Oc2ccnc3[nH]ccc23)cc1)C(=O)Nc1ccccc1 [Example 110, (R)-3-(4-((1H-pyrrolo[2,3-b]pyridin-4-yl)oxy)phenyl)-2-amino-N-phenylpropanamide]
pKi (Rho kinase 1 (ROCK-I)): < 7.52 | pKi (Rho kinase 2 (ROCK-II)): 7.52 to 8.52

N[C@@H](Cc1ccc(Oc2ccnc3[nH]ccc23)cc1)C(=O)NC1CCCCC1 [Example 111, (S)-3-(4-((1H-pyrrolo[2,3-b]pyridin-4-yl)oxy)phenyl)-2-amino-N-cyclohexylpropanamide]
pKi (Rho kinase 1 (ROCK-I)): 7.52 to 8.52 | pKi (Rho kinase 2 (ROCK-II)): > 8.52

N[C@H](Cc1ccc(Oc2ccnc3[nH]ccc23)cc1)C(=O)NC1CCCCC1 [Example 112, (R)-3-(4-((1H-pyrrolo[2,3-b]pyridin-4-yl)oxy)phenyl)-2-amino-N-cyclohexylpropanamide]
pKi (Rho kinase 1 (ROCK-I)): < 7.52 | pKi (Rho kinase 2 (ROCK-II)): 7.52 to 8.52

CN(C)C(=O)C(N)Cc1ccc(Oc2ccnc3[nH]ccc23)cc1 (stereo not drawn) [Example 113, 3-(4-((1H-pyrrolo[2,3-b]pyridin-4-yl)oxy)phenyl)-2-amino-N,N-dimethylpropanamide]
pKi (Rho kinase 1 (ROCK-I)): < 7.52 | pKi (Rho kinase 2 (ROCK-II)): 7.52 to 8.52

N[C@@H](Cc1ccc(Oc2ccnc3[nH]cc(F)c23)cc1)C(=O)N1CCN(Cc2ccccc2)CC1 [Example 114, (S)-2-amino-1-(4-benzylpiperazin-1-yl)-3-(4-((3-fluoro-1H-pyrrolo[2,3-b]pyridin-4-yl)oxy)phenyl)propan-1-one]
pKi (Rho kinase 1 (ROCK-I)): > 8.52 | pKi (Rho kinase 2 (ROCK-II)): > 8.52

Cc1c[nH]c2ncnc(Oc3ccc(C[C@H](N)C(=O)N4CCN(Cc5ccccc5)CC4)cc3F)c12 [Example 115, (S)-2-amino-1-(4-benzylpiperazin-1-yl)-3-(3-fluoro-4-((5-methyl-7H-pyrrolo[2,3-d]pyrimidin-4-yl)oxy)phenyl)propan-1-one]
pKi (Rho kinase 1 (ROCK-I)): > 8.52 | pKi (Rho kinase 2 (ROCK-II)): > 8.52
